Measurements: ChEMBL document CHEMBL1201862, “PubChem BioAssay data set” (2004)
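How tested: cells in 96-well plates exposed to compound for 48 hours at five concentrations. GI50 = concentration required for 50% inhibition of growth.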 Activity calls are given as the source filed them. Cut-off read from the data, not from the text of the source: active = GI50 up to about 1.1 µM and inactive = higher.

Legend:
Test in all cases: NCI anticancer screen, dose series, 48 h
A498 = test system: A498
A549 = test system: A549
CAKI-1 = test system: CAKI-1
CCRF-CEM = test system: CCRF-CEM
HCT-15 = test system: HCT-15
HT-29 = test system: HT-29
IGROV-1 = test system: IGROV-1
KM12 = test system: KM12
M14 = test system: M14
MOLT-4 = test system: MOLT-4
NCI-H226 = test system: NCI-H226
OVCAR-3 = test system: OVCAR-3
RXF 393 = test system: RXF 393
SF-268 = test system: SF-268
SK-MEL-28 = test system: SK-MEL-28
SK-MEL-2 = test system: SK-MEL-2
SK-OV-3 = test system: SK-OV-3
UACC-62 = test system: UACC-62
SN12C = test system: SN12C
NCI-H522 = test system: NCI-H522

| SMILES | GI50 (A498) | GI50 (A549) | GI50 (CAKI-1) | GI50 (CCRF-CEM) | GI50 (HCT-15) [µM] | GI50 (HT-29) | GI50 (IGROV-1) | GI50 (KM12) | GI50 (M14) | GI50 (MOLT-4) | GI50 (NCI-H226) | GI50 (OVCAR-3) | GI50 (RXF 393) | GI50 (SF-268) | GI50 (SK-MEL-28) | GI50 (SK-MEL-2) | GI50 (SK-OV-3) | GI50 (UACC-62) | GI50 (SN12C) | GI50 (NCI-H522) |
| --- | --- | --- | --- | --- | --- | --- | --- | --- | --- | --- | --- | --- | --- | --- | --- | --- | --- | --- | --- | --- |
| C[C@]12CC[C@@H]3c4ccc(O)cc4CC[C@H]3[C@@H]1C/C(=C\c1ccncc1)C2=O | 34 µM (inactive) | 19.1 µM (inactive) | 33.2 µM (inactive) | 15.3 µM (inactive) | 7.29 | 19.3 µM (inactive) | 15.1 µM (inactive) | 13.7 µM (inactive) | 20.4 µM (inactive) | 4.71 µM (inactive) | 19.3 µM (inactive) | 14.8 µM (inactive) | 20.4 µM (inactive) | 30.1 µM (inactive) | 64.3 µM (inactive) | 12.8 µM (inactive) | 35.1 µM (inactive) | 10.3 µM (inactive) | – | – |
| Nc1nc(N)c2cc(Sc3ccc4nc(N)nc(N)c4c3)ccc2n1 | > 100 µM (inactive) | < 0.01 µM (active) | > 100 µM (inactive) | 0.0194 µM (active) | 0.659 | 0.0933 µM (active) | 0.514 µM (active) | 2.15 µM (inactive) | > 100 µM (inactive) | 0.0524 µM (active) | > 29.2 µM (inactive) | > 31.6 µM (inactive) | > 100 µM (inactive) | 0.136 µM (active) | > 100 µM (inactive) | > 100 µM (inactive) | > 100 µM (inactive) | – | – | – |
| CCOC(=O)CCSS(=O)(=O)C(F)(F)F | > 100 µM (inactive) | > 100 µM (inactive) | > 100 µM (inactive) | > 100 µM (inactive) | > 100 | – | > 100 µM (inactive) | > 100 µM (inactive) | > 100 µM (inactive) | – | > 100 µM (inactive) | > 100 µM (inactive) | > 100 µM (inactive) | – | > 100 µM (inactive) | > 100 µM (inactive) | > 100 µM (inactive) | > 100 µM (inactive) | > 100 µM (inactive) | – |
| O=C1CCCC(=O)N1CCc1c[nH]c2ccccc12 | 77.3 µM (inactive) | > 100 µM (inactive) | > 100 µM (inactive) | > 100 µM (inactive) | – | > 100 µM (inactive) | > 100 µM (inactive) | > 100 µM (inactive) | > 100 µM (inactive) | > 100 µM (inactive) | 80.9 µM (inactive) | > 100 µM (inactive) | > 100 µM (inactive) | > 100 µM (inactive) | > 100 µM (inactive) | > 100 µM (inactive) | > 100 µM (inactive) | > 100 µM (inactive) | > 100 µM (inactive) | – |
| O=C1CC(=O)c2c(O)cc(O)c(c2O)-c2c(ccc(O)c2O)C2=CC(=O)c3c(O)cc(O)c(c3O2)-c2c1ccc(O)c2O.O=C1CC2(O)Oc3c1c(O)cc(O)c3-c1c(ccc(O)c1O)-c1cc(=O)c3c(O)cc(O)c(c3o1)-c1c2ccc(O)c1O | > 50 µM (inactive) | > 50 µM (inactive) | > 50 µM (inactive) | > 50 µM (inactive) | > 50 | > 50 µM (inactive) | > 50 µM (inactive) | – | > 50 µM (inactive) | > 50 µM (inactive) | > 50 µM (inactive) | > 50 µM (inactive) | > 50 µM (inactive) | > 50 µM (inactive) | > 50 µM (inactive) | > 50 µM (inactive) | > 50 µM (inactive) | > 50 µM (inactive) | > 50 µM (inactive) | – |
| c1ccc(C(NC2=NCCO2)C2CC2)cc1 (stereo not given) | 93.1 µM (inactive) | > 100 µM (inactive) | – | – | > 100 | 58.1 µM (inactive) | > 100 µM (inactive) | > 100 µM (inactive) | > 100 µM (inactive) | > 100 µM (inactive) | > 100 µM (inactive) | > 100 µM (inactive) | > 100 µM (inactive) | > 100 µM (inactive) | > 100 µM (inactive) | > 100 µM (inactive) | > 100 µM (inactive) | > 100 µM (inactive) | > 100 µM (inactive) | > 100 µM (inactive) |
